Source: PubChem BioAssay AID248 (DTP/NCI, 2004)
“And” between values parts separate entries of the source, which are not always exact repeats. Identical values can stand only once. Toxic doses and inconclusive results are not listed.

Test system: L1210 leukemia ip in BDF1 mice, survival T/C
Assay: NCI In Vivo Anticancer Drug Screen. Data for tumor model L1210 Leukemia (intraperitoneal) in B6D2F1 (BDF1) mice
Details: endpoint: mean survival time, higher = longer survival
In short: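 Read-out is survival time, reported as the treated-group measurement over the vehicle-control measurement.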

[1] = dose: 25.0 mg/kg/injection, schedule: Q04DX002 (ip), vehicle: saline with Tween-80
[2] = dose: 50.0 mg/kg/injection, schedule: Q04DX002 (ip), vehicle: saline with Tween-80
[3] = dose: 100.0 mg/kg/injection, schedule: Q01DX009 (ip), vehicle: Klucel (hydroxypropylcellulose) (HPC)
[4] = dose: 200.0 mg/kg/injection, schedule: Q01DX009 (ip), vehicle: Klucel (hydroxypropylcellulose) (HPC)
[5] = dose: 400.0 mg/kg/injection, schedule: Q01DX009 (ip), vehicle: Klucel (hydroxypropylcellulose) (HPC)

Nc1ncnc2c1c(C(=O)NO)cn2C1OC(CO)C(O)C1O (stereo not given)
T/C (dose: 6.25 mg/kg/injection, schedule: Q01DX009 (ip), vehicle: saline): 153 % of control | T/C (dose: 12.5 mg/kg/injection, schedule: Q01DX009 (ip), vehicle: saline): 156 % of control and 171 % of control | T/C (dose: 25.0 mg/kg/injection, schedule: Q01DX005 (ip), vehicle: saline): 108 % of control

O=C(NNC(=O)OCC(Cl)(Cl)Cl)OCC(Cl)(Cl)Cl
T/C [1]: 90 % of control | T/C [2]: 87 % of control

CC(=O)OCCc1ccc2c(c1)OCO2
T/C (dose: 100.0 mg/kg/injection, schedule: Q04DX002 (ip), vehicle: Klucel (hydroxypropylcellulose) (HPC)): 97 % of control | T/C (dose: 200.0 mg/kg/injection, schedule: Q04DX002 (ip), vehicle: Klucel (hydroxypropylcellulose) (HPC)): 112 % of control | T/C (dose: 400.0 mg/kg/injection, schedule: Q04DX002 (ip), vehicle: Klucel (hydroxypropylcellulose) (HPC)): 115 % of control

CN(C)/N=N/c1nc[nH]c1C(=O)NCCc1ccccc1
T/C (dose: 100.0 mg/kg/injection, schedule: Q01DX001 (ip), vehicle: other): 108 % of control | T/C (dose: 200.0 mg/kg/injection, schedule: Q01DX001 (ip), vehicle: other): 108 % of control

COCCNP(=O)(OC)OC
T/C (dose: 50.0 mg/kg/injection, schedule: Q01DX009 (ip), vehicle: acetone): 100 % of control | T/C (dose: 50.0 mg/kg/injection, schedule: Q04DX003 (ip), vehicle: acetone): 96 % of control | T/C (dose: 100.0 mg/kg/injection, schedule: Q01DX001 (ip), vehicle: acetone): 110 % of control | T/C (dose: 100.0 mg/kg/injection, schedule: Q01DX009 (ip), vehicle: acetone): 108 % of control | T/C (dose: 100.0 mg/kg/injection, schedule: Q04DX003 (ip), vehicle: acetone): 101 % of control | T/C (dose: 200.0 mg/kg/injection, schedule: Q01DX001 (ip), vehicle: acetone): 102 % of control | T/C (dose: 200.0 mg/kg/injection, schedule: Q01DX009 (ip), vehicle: acetone): 97 % of control | T/C (dose: 200.0 mg/kg/injection, schedule: Q04DX003 (ip), vehicle: acetone): 111 % of control

CC(C)c1cccc(C(C)C)c1OCCOC(=O)Nc1ccc(F)cc1
T/C [3]: 101 % of control | T/C [4]: 117 % of control | T/C [5]: 109 % of control

C/C=C/[N+]([O-])=NC(C)CCCCCC (stereo not given)
T/C (dose: 100.0 mg/kg/injection, schedule: Q04DX002 (ip), vehicle: saline): 105 % of control | T/C (dose: 200.0 mg/kg/injection, schedule: Q04DX002 (ip), vehicle: saline): 97 % of control | T/C (dose: 400.0 mg/kg/injection, schedule: Q04DX002 (ip), vehicle: saline): 94 % of control

OC1CCSC1 (stereo not given)
T/C (dose: 50.0 mg/kg/injection, schedule: Q01DX009 (ip), vehicle: saline): 95 % of control | T/C (dose: 100.0 mg/kg/injection, schedule: Q01DX009 (ip), vehicle: saline): 95 % of control | T/C (dose: 200.0 mg/kg/injection, schedule: Q01DX009 (ip), vehicle: saline): 98 % of control

c1ccc(-c2cc(-c3ccccc3)[nH]n2)cc1
T/C (dose: 100.0 mg/kg/injection, schedule: Q04DX003 (ip), vehicle: saline with Tween-80): 100 % of control | T/C (dose: 200.0 mg/kg/injection, schedule: Q04DX003 (ip), vehicle: saline with Tween-80): 110 % of control | T/C (dose: 400.0 mg/kg/injection, schedule: Q04DX003 (ip), vehicle: saline with Tween-80): 105 % of control

NC(CSS(=O)(=O)O)=NCc1ccoc1
T/C (dose: 12.5 mg/kg/injection, schedule: Q04DX002 (ip), vehicle: saline with Tween-80): 98 % of control | T/C [1]: 98 % of control | T/C [2]: 95 % of control and 98 % of control

CCCCCCCCOC(=O)Nc1ccccc1
T/C (dose: 25.0 mg/kg/injection, schedule: Q01DX009 (ip), vehicle: Klucel (hydroxypropylcellulose) (HPC)): 100 % of control | T/C (dose: 50.0 mg/kg/injection, schedule: Q01DX009 (ip), vehicle: Klucel (hydroxypropylcellulose) (HPC)): 94 % of control | T/C [3]: 100 % of control

CCOC(=O)C(Cc1ccc(Cl)cc1)(Cc1ccc(Cl)cc1)C(=O)OCC
T/C [3]: 100 % of control | T/C (dose: 100.0 mg/kg/injection, schedule: Q04DX003 (ip), vehicle: Klucel (hydroxypropylcellulose) (HPC)): 92 % of control | T/C [4]: 98 % of control | T/C (dose: 200.0 mg/kg/injection, schedule: Q04DX003 (ip), vehicle: Klucel (hydroxypropylcellulose) (HPC)): 92 % of control | T/C [5]: 102 % of control | T/C (dose: 400.0 mg/kg/injection, schedule: Q04DX003 (ip), vehicle: Klucel (hydroxypropylcellulose) (HPC)): 94 % of control

CC(=O)O[C@H]1CC[C@H]2[C@@H]3CC[C@H]4C[C@@H]5[C@H](C[C@]4(C)[C@H]3CC[C@]12C)C5(F)F
T/C (dose: 50.0 mg/kg/injection, schedule: Q01DX001 (sc), vehicle: steriod suspending solution): 102 % of control | T/C (dose: 50.0 mg/kg/injection, schedule: Q01DX009 (sc), vehicle: steriod suspending solution): 103 % of control | T/C (dose: 100.0 mg/kg/injection, schedule: Q01DX001 (sc), vehicle: steriod suspending solution): 101 % of control | T/C (dose: 100.0 mg/kg/injection, schedule: Q01DX009 (sc), vehicle: steriod suspending solution): 105 % of control | T/C (dose: 200.0 mg/kg/injection, schedule: Q01DX001 (sc), vehicle: steriod suspending solution): 98 % of control | T/C (dose: 200.0 mg/kg/injection, schedule: Q01DX009 (sc), vehicle: steriod suspending solution): 102 % of control | T/C (dose: 400.0 mg/kg/injection, schedule: Q01DX001 (sc), vehicle: steriod suspending solution): 101 % of control | T/C (dose: 400.0 mg/kg/injection, schedule: Q01DX009 (sc), vehicle: steriod suspending solution): 102 % of control
